Type in all cases: cell-based
The subject of one test is Bacillus subtilis 964. In words: Bauer-Kirby disc diffusion (2 mm agar depth), zone of inhibition, Table 1. Particulars: preparation III, 6.6 μg antibiotic/disc, strain resistance: --, read-out: diameter of the zone of inhibition. The source says: (§1) Thienamycin is further characterized by the following antibiotic spectrum profile. The test employs the Bauer-Kirby disc diffusion method modified only in respect to the 2 mm. agar depth employed here.
(In general: A growth-free zone around the sample is the usual read-out of agar diffusion tests.)

Test [1] concerns Enterobacter cloacae 2646. The test is described as above. To be noted: preparation III, 6.6 μg antibiotic/disc, strain resistance: P, C (penicillins, cephalosporins), read-out: diameter of the zone of inhibition.
From the text: as §1

The test system of test [2] is Enterobacter cloacae 2647. Described as above. Particulars: preparation III, 6.6 μg antibiotic/disc, strain resistance: --, read-out: diameter of the zone of inhibition.
From the text: as §1

The subject of another test is Escherichia coli 2017. The test is described as above. To be noted: preparation III, 6.6 μg antibiotic/disc, strain resistance: --, read-out: diameter of the zone of inhibition.
From the text: as §1

In another test the test system is Escherichia coli 2482. The description is as above. To be noted: preparation III, 6.6 μg antibiotic/disc, strain resistance: --, read-out: diameter of the zone of inhibition.
From the text: as §1

The test system of a further test is Escherichia coli 2964. Described as above. Particulars: preparation III, 6.6 μg antibiotic/disc, strain resistance: P, C (penicillins, cephalosporins), read-out: diameter of the zone of inhibition.
From the text: as §1

The test system of another test is Klebsiella 2921. The test is described as above. To be noted: preparation III, 6.6 μg antibiotic/disc, strain resistance: P (penicillins), read-out: diameter of the zone of inhibition.
From the text: as §1

A further test relates to Klebsiella 2922. The test is described as above. To be noted: preparation III, 6.6 μg antibiotic/disc, strain resistance: P (penicillins), read-out: diameter of the zone of inhibition.
From the text: as §1

Another test relates to Proteus mirabilis 2830. The test is described as above. To be noted: preparation III, 6.6 μg antibiotic/disc, strain resistance: P, C (penicillins, cephalosporins), read-out: diameter of the zone of inhibition.
From the text: as §1

For the next test, the system named is Proteus morganii 2833. The description is as above. To be noted: Morganella morganii, preparation III, 6.6 μg antibiotic/disc, strain resistance: P, C (penicillins, cephalosporins), read-out: diameter of the zone of inhibition.
From the text: as §1

Test [3] concerns Pseudomonas aeruginosa 2616. The test is described as above. To be noted: preparation III, 6.6 μg antibiotic/disc, strain resistance: P, C (penicillins, cephalosporins), read-out: diameter of the zone of inhibition.
From the text: as §1

The subject of test [4] is Pseudomonas aeruginosa 2824. Described as above. Particulars: preparation III, 6.6 μg antibiotic/disc, strain resistance: P, C (penicillins, cephalosporins), read-out: diameter of the zone of inhibition.
From the text: as §1

Test [5] has as its system Pseudomonas aeruginosa 3210. The description is as above. To be noted: preparation III, 6.6 μg antibiotic/disc, strain resistance: P, C (penicillins, cephalosporins), read-out: diameter of the zone of inhibition.
From the text: as §1

Another test has as its system Serratia 2840. Described as above. To be noted: preparation III, 6.6 μg antibiotic/disc, strain resistance: P, C (penicillins, cephalosporins), read-out: diameter of the zone of inhibition.
From the text: as §1

In test [6] the test system is Staphylococcus aureus 2314. The description is as above. To be noted: preparation III, 6.6 μg antibiotic/disc, strain resistance: P (penicillins), read-out: diameter of the zone of inhibition.
From the text: as §1

Test [7] deals with Staphylococcus aureus 2985. The description is as above. Particulars: preparation III, 6.6 μg antibiotic/disc, strain resistance: --, read-out: diameter of the zone of inhibition.
From the text: as §1

In test [8] the test system is Streptococcus faecalis 755. Described as above. Particulars: Enterococcus faecalis, preparation III, 6.6 μg antibiotic/disc, strain resistance: --, read-out: diameter of the zone of inhibition.
From the text: as §1

Test [9] has as its system Staphylococcus aureus ATCC 6538P. Nature of the test: disc-diffusion assay of antibacterial activity (5 ml plates). To be noted: estimated or calculated potency; one unit = same inhibition as 1 μg. of cephalothin/ml. How it is done:
Assays of antibacterial activity are run according to the following disc-diffusion procedure unless otherwise indicated. The assay plates are prepared in the following manner. An overnight growth of the assay organism, Staphylococcus aureus ATCC 6538P, in nutrient broth plus 0.2% yeast extract is diluted with nutrient broth plus 0.2% yeast extract to a suspension having 55% transmittance at a wavelength of 660 mμ. This suspension is added to Difco nutrient agar supplemented with 2.0 g./l. Difco yeast extract, at 47° C. to 48° C., to make a composition containing 33.2 ml. of the suspension per liter of agar. Five ml. of this suspension is poured into petri dishes of 85 mm. diameter, and these plates are chilled and held at 4° C. until used (5 day maximum).
Samples of the antibiotic to be assayed are diluted to an appropriate concentration in phosphate buffer at pH 7. Filter-paper discs, 0.5-inch in diameter, are dipped into the test solution and placed on the surface of the assay plate; two discs for each sample are normally placed on one plate opposite to one another. The plates are incubated overnight at 37° C. and the zone of inhibition is measured as mm. diameter. The zone of inhibition measured in mm. determines relative potencies or, when compared with a purified reference standard such as cephalothin, the potency of antibiotic in units/ml. The unit of activity reported in Examples 4 through 7 is based on cephalothin standard solutions of 8, 4, 2 and 1 μg./ml. One unit is defined as the amount which calculates to produce the same inhibition as 1 μg. of cephalothin/ml. that zone of inhibition being between 16 and 21 mm. diameter.

Data on one compound can be found in patent publication US4081548A, “Antibiotics” (Merck & Co., Inc., priority 1976, dated 1978).

For `C[C@@H](O)[C@H]1C(=O)N2C(C(=O)O)=C(SCCN)C[C@H]12` [III, thienamycin], the zone of inhibition (commonly the size of the clear area around the sample on an inoculated plate) at 6.6 µg/disc with Bacillus subtilis 964 stood at 46 mm; in test [1] it was 25 mm; in test [2] it was 27.5 mm; in the test with Escherichia coli 2017, 28 mm; in the test on Escherichia coli 2482, 27 mm; in the test with Escherichia coli 2964, 27 mm. Further, the zone of inhibition at 6.6 µg/disc with Klebsiella 2921 was 25 mm; in the test with Klebsiella 2922, 25 mm; with Proteus mirabilis 2830, 21 mm; with Proteus morganii 2833, 20 mm; in test [3], 20.5 mm; in [4], 30 mm. In addition, the zone of inhibition at 6.6 µg/disc in test [5] was determined as 25 mm; in the test on Serratia 2840, 23 mm; in test [6], 38 mm; in test [7], 38 mm; in test [8], 24 mm. For the same compound, the “potency (estimated / calculated)” value in [9] is ~31,000 units/mg.
